Results as given in PMC11457037 (Journal of medicinal chemistry, 2023).
Each block holds one compound with its values, some of them ahead of it.

Key:
[1] = system: multiple strains of EV-D68; conditions: read-out: EC50 values, multiple strains of EV-D68; viral cytopathic effect assay and plaque assay; cited from earlier work
EV-D68 2A^pro [2] = biological target: T1, EV-D68 2A^pro (Enterovirus D68, UniProt A0A097BW19); experiment: Enzyme kinetic studies; assay type: biochemical; conditions: for Mode of inhibition of EV-D68 2A^pro: from fitting of kinetic curves
[3] = In vivo toxicity, escalating i.p. doses
five strains of EV-D68 = experiment: Broad-spectrum antiviral activity, five strains of EV-D68 together; assay type: cell-based, Enterovirus D68
[4] = In vivo snap P.K. in mice; conditions: male C57BL/6J mice, 50 mg/kg i.p., 10% DMSO and 90% corn oil
EV-D68 2A^pro [5] = biological target: T1, EV-D68 2A^pro; experiment: FRET-based enzymatic assay; assay type: biochemical
EV-D68 US/MO/14-18947 [6] = experiment: Plaque assay, EV-D68 US/MO/14-18947; assay type: cell-based, Enterovirus D68
EV-D68 US/MO/14-18947 [7] = experiment: CPE assay with EV-D68 US/MO/14-18947 in R.D. cells; assay type: cell-based, Enterovirus D68; conditions: read-out: Antiviral EC50; CPE assay, EV-D68 US/MO/14-18947, R.D. cells
R.D. cells = experiment: Cytotoxicity, neutral red uptake method in R.D. cells; assay type: cell-based, Human; conditions: read-out: Cytotoxicity CC50

Compound: CCC[C@H](NC(=O)[C@@H]1[C@H]2CCC[C@H]2CN1C(=O)[C@@H](NC(=O)[C@@H](NC(=O)c1cnccn1)C1CCCCC1)C(C)(C)C)C(=O)C(=O)NC1CC1 [Telaprevir, telaprevir, reference compound]
- EC50 [1]: 400 to 1900 nM
- kinact (EV-D68 2A^pro [2]): 0.00146 s⁻¹
- Mode of inhibition of EV-D68 2A^pro (EV-D68 2A^pro [2]): irreversible covalent inhibitor

Compound: CC(C)(C)[C@H](NC(=O)CC12CC3CC(CC(C3)C1)C2)C(=O)N1C[C@@H]2CCC[C@@H]2[C@H]1C(=O)N[C@H](C(=O)C(=O)NC1CC1)C1CCCCC1 [Jun11762, (1S,3aR,6aS)-2-((S)-2-(2-((3S,5S,7S)-adamantan-1-yl)acetamido)-3,3-dimethylbutanoyl)-N-((S)-1-cyclohexyl-3-(cyclopropylamino)-2,3-dioxopropyl)octahydrocyclopenta[c]pyrrole-1-carboxamide]
- mortality and body weight ([3]; BALB/c mice, i.p. 100 to 400 mg/kg, monitored up to day 16): no mortality or significant body weight loss was observed
- tolerated dose ([3]; female, BALB/c, mouse, in vivo, 16 days): up to 400 mg/kg
- EC50 (five strains of EV-D68; Enterovirus D, EVD68, read-out: EC50 values over all five strains): 43 to 269 nM
- fold improvement compared to telaprevir, five strains (five strains of EV-D68; five EV-D68 strains): 3.1-4.6 fold
- time plasma concentration was above 4-fold of EC50 value (0.13 μM) [4]: at least 5 h
- Mode of inhibition of EV-D68 2A^pro (EV-D68 2A^pro [2]): reversible binding
- enzymatic inhibition, comparison in words (EV-D68 2A^pro [5]): comparable enzymatic inhibition and antiviral activity as Jun8861
- fold improvement compared to telaprevir, plaque assay EC50 (EV-D68 US/MO/14-18947 [6]): 3 to 4 fold

Compound: (1S,3aR,6aS)-N-((S)-1-(cyclopropylamino)-1,2-dioxohexan-3-yl)-2-((S)-3,3-dimethyl-2-(2-phenylacetamido)butanoyl)octahydrocyclopenta[c]pyrrole-1-carboxamide [Jun8861]
- EC50 (EV-D68 US/MO/14-18947 [7]): 160 nM
- Mode of inhibition of EV-D68 2A^pro (EV-D68 2A^pro [2]): reversible binding
- IC50 (EV-D68 2A^pro [5]; read-out: Enzymatic inhibitory activity IC50, EV-D68 2A^pro): 80 nM
- CC50 (R.D. cells): 36200 nM

- fold improvement compared to telaprevir, plaque assay EC50 (EV-D68 US/MO/14-18947 [6]): 3 to 4 fold
Compound: CCC(C)[C@H](NC(=O)[C@@H]1[C@H]2CCC[C@H]2CN1C(=O)[C@@H](NC(=O)CC12CC3CC(CC(C3)C1)C2)C(C)(C)C)C(=O)C(=O)NC1CC1 (stereo partly drawn) [Jun11756, (1S,3aR,6aS)-2-((S)-2-(2-((3S,5S,7S)-adamantan-1-yl)acetamido)-3,3-dimethylbutanoyl)-N-((3S,4S)-1-(cyclopropylamino)-4-methyl-1,2-dioxohexan-3-yl)octahydrocyclopenta[c]pyrrole-1-carboxamide]
- enzymatic inhibition, comparison in words (EV-D68 2A^pro [5]): comparable enzymatic inhibition and antiviral activity as Jun8861
